Assay results: patent US10538561B2, “Peptide for treating inflammatory diseases” (priority 2015, dated 2020)
Marks after values point to notes of the source that are not given here.

Key:
Human PBMCs = test: Cell viability (MTT assay) in PBMCs; assay type: cell-based; conditions: for IC50 value / cytotoxicity: PBMCs
Procedure: (§1) Cell Lines/Cells: Human Keratinocytes (HaCaT); Human melanoma (SK-MEL-28); Human PBMCs. Test Item: IS181 Treatment regimen: Single addition—24 h, ^#Multiple additions (3)−72 h; Concentration range: 1 ng/ml-2 mg/ml (triplicate wells); Sera Condition: […] Method of estimation: MTT assay. […] Positive control: Triton-X-100, Doxorubicin Hydrochloride.

[1] = Cell viability (MTT assay) in PBMCs; assay type: cell-based, Human; conditions: human, PBMCs
Procedure: as §1

PRKCA (PKC alpha) = PRKCA (PKC alpha) (Homo sapiens, UniProt P17252); test: Biochemical kinase assay PRKCA
Procedure: (§2) Test system: cell free assays; test items: IS181; concentrations tested: 1 ng/ml-5000 μg/ml; Kinases: a) Cell free assays: EGFR (ErbB1); FLT1 (VEGFR1); JAK1; JAK3 MAP2K1 (MEK1); PDGFRA (PDGFR alpha); PRKCA (PKC alpha); b) cell based assay: JAK-STAT.

8-oxo-G = test: UVB damage: 8-oxo-G formation (ELISA); assay type: cell-based, human; conditions: HaCaT, UVB 30 mJ/cm2, 5 μg/ml
Procedure: Effect on Cyclobutane Pyrimidine Dimers (CPD); Effect on 8-oxo-G formation: Cell line: HaCaT (human keratinocytes); test items: IS 181; concentration range: 0.1-100 μg/ml (Duplicate wells). Method of estimation: Plating of cells; Sera starvation with 0.1% FBS (24 hours); treatment of cells with test items (24 hours); UVB damage (30 mJ/cm2)+Test items addition (24 hours); Cyclobutane pyrimidine dimers (CPD) and 8-oxo-G estimation using ELISA.

[2] = test system: Human endothelial cells (EA.hy 926); test: Inhibition of endothelial cell migration (wound); assay type: cell-based; conditions: for % Inhibition of migration with respect to respective 0 h control: EA.hy926, 14 h
Procedure: Cell line: Human endothelial cells (EA.hy 926); test item: IS 181; treatment regimen: single addition; concentration range: 0.1 μg/ml-1 mg/ml; sera condition: medium containing 10% FBS. […] The cells were then subjected to serum starved with medium containing 1% FBS for 24 hours. 24 hours post serum starvation, the wounds (straight line) were created in the middle of the well using a sterile 200 μl pipette tip. Cells were washed twice using DMEM followed by treatment with different concentrations of IS 181 in DMEM containing 10% FBS. Images of wound were taken at 0 h and 14 h at three points in single well and distance of wound closure was measured using Image J software. End point: image analysis of cell migration of different concentrations of IS 181 treated cells at 0 hour and after 14 hours of treatment. Percentage inhibition in cell migration of different concentrations of IS 181 treated cells were calculated after 14 h of treatment with respect to respective 0 hours (FIG. 13). […] (FIGS. 14A-14B).

[3] = test system: Imiquimod (IMQ) induced psoriasis; test: Imiquimod (IMQ) induced psoriasis model; assay type: in vivo, BALB/C mice
IL-8 = test: LPS+PMA stimulated IL-8 secretion in HaCaT; assay type: cell-based, Human; conditions: for IL-8 % decrease with respect to LPS + PMA / IL-8 Conc: HaCaT + LPS + PMA, 24 h
Procedure: (§3) Effect on pro-inflammatory cytokines against TNF-α/LPS+PMA stimulation: TNF-α; IFN-γ; TARC; TSLP; IL-6; IL-8: Cell lines: Human keratinocytes (HaCaT); test item (TI); IS181; experimental steps: pre-treatment of cells with TI for 2 hours; stimulation with TNF-α: 20 ng/ml; stimulation with LPS+PMA-10 μg/ml LPS+40 ng/ml PMA; supernatant collection for cytokine analysis after 24 hours; concentration range: 0.1 μg/ml-100 μg/ml (duplicate wells); cytokines: TNF-α; IFN-γ; TARC; TSLP; IL-6; IL-8. Method of estimating cytokines: ELISA; positive control: dexamethasone.
(§4) Cell line: HaCaT (Human Keratinocytes); TI Treatment regimen: Pretreatment for 2 h; TI Concentration range: 0.1 μg/ml-100 μg/ml (duplicate wells); TNF-α stimulation: 20 ng/ml; LPS+PMA stimulation: 10 μg/ml LPS+40 ng/ml PMA; Time point for supernatants collection: 24 h; Method of estimation: ELISA; Positive control: Dexamethasone

EGFR (ErbB1) = EGFR (ErbB1) (Homo sapiens, UniProt P00533); test: Biochemical kinase assay EGFR
EGFR (ErbB1), sequence (P00533 25-1210): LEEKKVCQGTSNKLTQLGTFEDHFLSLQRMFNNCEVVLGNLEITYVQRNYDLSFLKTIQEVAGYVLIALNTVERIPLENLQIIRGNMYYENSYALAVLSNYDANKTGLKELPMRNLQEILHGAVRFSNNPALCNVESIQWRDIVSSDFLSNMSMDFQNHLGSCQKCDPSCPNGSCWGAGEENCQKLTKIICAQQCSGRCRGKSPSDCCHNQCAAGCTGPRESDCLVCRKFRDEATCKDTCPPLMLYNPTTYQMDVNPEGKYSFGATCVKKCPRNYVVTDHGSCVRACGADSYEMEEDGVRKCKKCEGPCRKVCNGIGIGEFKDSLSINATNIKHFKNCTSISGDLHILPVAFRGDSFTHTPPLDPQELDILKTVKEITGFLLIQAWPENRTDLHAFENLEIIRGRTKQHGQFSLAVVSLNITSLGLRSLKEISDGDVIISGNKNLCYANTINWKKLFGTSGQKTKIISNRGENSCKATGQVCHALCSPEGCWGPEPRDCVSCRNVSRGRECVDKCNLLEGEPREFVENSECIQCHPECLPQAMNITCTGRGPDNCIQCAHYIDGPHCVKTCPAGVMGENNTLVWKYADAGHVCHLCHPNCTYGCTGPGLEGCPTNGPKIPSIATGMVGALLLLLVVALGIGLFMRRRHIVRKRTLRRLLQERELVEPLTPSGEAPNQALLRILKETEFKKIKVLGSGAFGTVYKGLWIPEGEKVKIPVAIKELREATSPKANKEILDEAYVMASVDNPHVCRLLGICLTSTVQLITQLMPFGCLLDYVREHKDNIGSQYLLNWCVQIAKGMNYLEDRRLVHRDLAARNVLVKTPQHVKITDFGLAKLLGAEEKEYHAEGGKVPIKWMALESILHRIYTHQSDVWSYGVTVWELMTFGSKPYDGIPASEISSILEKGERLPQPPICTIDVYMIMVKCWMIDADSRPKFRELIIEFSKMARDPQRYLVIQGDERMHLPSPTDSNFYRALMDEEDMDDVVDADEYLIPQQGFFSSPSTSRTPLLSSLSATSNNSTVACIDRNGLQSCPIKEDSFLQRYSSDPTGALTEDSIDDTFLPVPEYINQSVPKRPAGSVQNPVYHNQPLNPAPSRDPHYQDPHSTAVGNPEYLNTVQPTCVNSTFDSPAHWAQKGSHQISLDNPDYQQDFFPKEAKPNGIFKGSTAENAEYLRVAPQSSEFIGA
Procedure: as §2

TSLP = test: LPS+PMA stimulated TSLP secretion in HaCaT; assay type: cell-based, Human; conditions: for TSLP % decrease with respect to LPS + PMA / TSLP Conc (pg/ml): HaCaT + LPS + PMA, 24 h
Procedure: as §3, §4

Q: Which results are given for “H-WVQRVVEKFLK-OH [IS181, H-Trp-Val-Gln-Arg-Val-Val-Glu-Lys-Phe-Leu-Lys-OH]”?
A: IC50 (Human PBMCs; 24 h): 1400 µM; IC50 (Human PBMCs; 72 h): 680 µM; IC50 value (Human PBMCs; 24 h): 2000 µg/mL; cytotoxicity (Human PBMCs; 24 h, at concentrations 1 mg/ml): 40% to 53%; IC50 value (Human PBMCs; 72 h): 980 µg/mL; cytotoxicity (Human PBMCs; 72 h, concentrations >0.5 mg/ml): 33% to 66%; cytotoxicity at 24 h, 1000 μg/ml ([1]; human PBMCs, 24 h, 1000 μg/ml): 40.2%; cytotoxicity at 24 h, 2000 μg/ml ([1]; human PBMCs, 24 h, 2000 μg/ml): 53%; cytotoxicity at 72 h, 500 μg/ml ([1]; human PBMCs, 72 h, 500 μg/ml): 32.7%; cytotoxicity at 72 h, 1000 μg/ml ([1]; human PBMCs, 72 h, 1000 μg/ml): 70.8%; cytotoxicity at 72 h, 2000 μg/ml ([1]; human PBMCs, 72 h, 2000 μg/ml): 66.1%; cytotoxicity at 24 h, 10 μg/ml ([1]; peripheral blood mononuclear cells (PBMCs), 24 h, 10 μg/ml): -76.5%; cytotoxicity at 24 h, 50 μg/ml ([1]; peripheral blood mononuclear cells (PBMCs), 24 h, 50 μg/ml): -67.1%; cytotoxicity at 24 h, 100 μg/ml ([1]; peripheral blood mononuclear cells (PBMCs), 24 h, 100 μg/ml): -88.3%; cytotoxicity at 24 h, 500 μg/ml ([1]; peripheral blood mononuclear cells (PBMCs), 24 h, 500 μg/ml): -105%; cytotoxicity at 72 h, 10 μg/ml ([1]; peripheral blood mononuclear cells (PBMCs), 72 h, 10 μg/ml): 18.7%; cytotoxicity at 72 h, 50 μg/ml ([1]; peripheral blood mononuclear cells (PBMCs), 72 h, 50 μg/ml): 20.1%; cytotoxicity at 72 h, 100 μg/ml ([1]; peripheral blood mononuclear cells (PBMCs), 72 h, 100 μg/ml): 14%; inhibition at 10 µg/mL (PRKCA (PKC alpha); 10 μg/ml): 20%; inhibition at 50 µg/mL (PRKCA (PKC alpha); cell free, 50 μg/ml): 20%; inhibition at 100 µg/mL (PRKCA (PKC alpha); cell free, 100 μg/ml): 8%; inhibition at 250 µg/mL (PRKCA (PKC alpha); cell free, 250 μg/ml): -8%; inhibition at 500 µg/mL (PRKCA (PKC alpha); cell free, 500 μg/ml): -17%; inhibition at 1000 µg/mL (PRKCA (PKC alpha); cell free, 1000 μg/ml): -19%; inhibition at 2000 µg/mL (PRKCA (PKC alpha); cell free, 2000 μg/ml): -80%; % Decrease in 8-OCO-G formation with respect to UVB irradiated untreated cells (8-oxo-G): 15.5%; inhibition of migration of EA.hy926 cells ([2]; 10 μg/ml-1 mg/ml): 17%-54%; % Inhibition of migration with respect to respective 0 h control ([2]; 0.1 μg/ml): 0%; % Inhibition of migration with respect to respective 0 h control ([2]; 1 μg/ml): 0%; % Inhibition of migration with respect to respective 0 h control ([2]; 10 μg/ml): 17%; % Inhibition of migration with respect to respective 0 h control ([2]; 50 μg/ml): 34%; % Inhibition of migration with respect to respective 0 h control ([2]; 100 μg/ml): 41%; % Inhibition of migration with respect to respective 0 h control ([2]; 1 mg/ml): 54%; ear thickness (life phase) ([3]; 1.2 mg/kg i.m. and i.p): mild reduction in ear thickness; spleen weight ([3]; i.p): mild reduction in spleen weight; IL-8 inhibition (IL-8; HaCaT): good extent of TSLP and IL-8 inhibition; IL-8 % decrease with respect to LPS + PMA (IL-8; 0.1 μg/ml): 8.8%; IL-8 Conc (IL-8; 0.1 μg/ml): 357.4 pg/mL; IL-8 % decrease with respect to LPS + PMA (IL-8; 1 μg/ml): 19.8%; IL-8 Conc (IL-8; 1 μg/ml): 314.5 pg/mL; IL-8 % decrease with respect to LPS + PMA (IL-8; 5 μg/ml): 4.3%; IL-8 Conc (IL-8; 5 μg/ml): 375.3 pg/mL; IL-8 % decrease with respect to LPS + PMA (IL-8; 10 μg/ml): 19.4%; IL-8 Conc (IL-8; 10 μg/ml): 316.1 pg/mL; IL-8 % decrease with respect to LPS + PMA (IL-8; 100 μg/ml): −18.1%; IL-8 Conc (IL-8; 100 μg/ml): 463.1 pg/mL; inhibition at 10 µg/mL (EGFR (ErbB1); 10 μg/ml): 43%; inhibition at 50 µg/mL (EGFR (ErbB1); cell free, 50 μg/ml): 43%; inhibition at 100 µg/mL (EGFR (ErbB1); cell free, 100 μg/ml): -12%; inhibition at 250 µg/mL (EGFR (ErbB1); cell free, 250 μg/ml): -29%; inhibition at 500 µg/mL (EGFR (ErbB1); cell free, 500 μg/ml): -56%; inhibition at 1000 µg/mL (EGFR (ErbB1); cell free, 1000 μg/ml): -87%; inhibition at 2000 µg/mL (EGFR (ErbB1); cell free, 2000 μg/ml): -155%; secretion of TSLP inhibited as compared to LPS+PMA stimulated cells (TSLP; 0.1 μg/ml-100 μg/ml): 46.4%-53.6%; TSLP inhibition (TSLP; HaCaT): good extent of TSLP and IL-8 inhibition; TSLP % decrease with respect to LPS + PMA (TSLP; 0.1 μg/ml): 49.4%; TSLP Conc (pg/ml) (TSLP; 0.1 μg/ml): 62.9*** pg/ml; TSLP % decrease with respect to LPS + PMA (TSLP; 1 μg/ml): 47.9%; TSLP Conc (pg/ml) (TSLP; 1 μg/ml): 64.7*** pg/ml; TSLP % decrease with respect to LPS + PMA (TSLP; 5 μg/ml): 46.4%; TSLP Conc (pg/ml) (TSLP; 5 μg/ml): 66.6*** pg/ml; TSLP % decrease with respect to LPS + PMA (TSLP; 10 μg/ml): 53.6%; TSLP Conc (pg/ml) (TSLP; 10 μg/ml): 57.6*** pg/ml; TSLP % decrease with respect to LPS + PMA (TSLP; 100 μg/ml): 49.8%; TSLP Conc (pg/ml) (TSLP; 100 μg/ml): 62.4*** pg/ml
